Experimental data: US12312333B2, “SK channel positive allosteric modulators” (Chapman University, priority 2021, dated 2025)

Experiments:
human KCa3.1 channel = biological target: T1, human KCa3.1 channel (Homo sapiens, UniProt O15554+P0DP23); test: Inside-out patch-clamp on KCa3.1 channels expressed in HEK293 cells; type: cell-based; conditions: for response of KCa3.1 channels: inside-out patch; for Emax: normalized to 10 μM Ca2+
T1 construct: expressed in transfected cells; host or cells: HEK293
Experimental: The two newly synthesized compounds, 2o and 2q, were tested to determine whether they retained their subtype-selectivity. Neither 2o (FIG. 5A) nor 2q (FIG. 5B) elicited significant responses from the human KCa2.1 channel expressed in HEK293 cells. When compared with the responses from KCa2.2a channels to these two compounds, the differences became even more apparent (FIG. 5C), with the Emax values on KCa2.2a channels at ˜90%, whereas the Emax values on KCa2.1 channels were at ˜0% (FIG. 5D).
The effect of newly synthesized compounds on the KCa2.x/KCa3.1 channels was investigated as previously described (Nam, Y. W.; et al, Acta Physiol (Oxf) 2020, e13552; Nam, Y. W.; et al. Scientific reports 2018, 8 (1), 10749). Briefly, the rat KCa2.2a, human KCa2.1, human KCa2.3 or human KCa3.1 channels cDNA constructs were either generated in-house or through molecular cloning services (Genscript). The channel cDNAs, along with CaM and GFP, at a ratio of 7:4:2 (ORF ratios), were transfected into HEK293 cells by the calcium-phosphate method. KCa currents were recorded 1-2 days after transfection, with an Axon200B amplifier (Molecular Devices) at room temperature. The resistance of the patch electrodes ranged from 3-5 MΩ. The pipette solution contained (in mM): 140 KCl, 10 Hepes (pH 7.4), 1 MgSO4. The bath solution containing (in mM): 140 KCl, 10 Hepes (pH 7.2), 1 EGTA, 0.1 Dibromo-BAPTA, and 1 HEDTA was mixed with Ca^2+ to obtain the desired free Ca^2+ concentrations, calculated using the software by Chris Patton of Stanford University (https://somapp.ucdmc.ucdavis.edu/pharmacology/bers/maxchelator/webmaxc/webmaxcS.htm). […] Briefly, a standard curve was generated using the Ca^2+ buffers from the kit and a fluorescence Ca^2+ indicator. Then, the Ca^2+ concentrations of the bath solution were determined through interpolation on the standard curve.
High resistance seals (>1 GΩ) were formed before inside-out patches were obtained. […] Currents were recorded by repetitive 1-s-voltage ramps from −100 mV to +100 mV from a holding potential of 0 mV. […]
(§1) To measure the effect of CyPPA (Alomone Labs) and newly synthesized compounds, the intracellular face was exposed to bath solutions with 0.15 μM Ca^2+. One minute after switching of bath solutions, ten sweeps with a 1-s interval were recorded at a series of concentrations of compound in the presence of 0.15 μM Ca^2+. The maximal KCa2.x/KCa3.1 current in response to 10 μM Ca^2+ was then recorded.
Patch-clamp recordings were analyzed using Clampfit 10.5 (Molecular Devices LLC) and concentration-response curves were analyzed in GraphPad Prism 9.0.2 (GraphPad Software Inc.). […] EC50 values and Hill coefficients were determined by fitting the data points to a standard concentration-response curve (Y=100/(1+(X/EC50)^−Hill)). […]

rat KCa2.2a = biological target: T2, rat KCa2.2a (UniProt P0DP23+P70604); test: Inside-out patch-clamp potentiation of KCa2.2a channels expressed in HEK293 cells; type: cell-based; conditions: for EC50: inside-out patch, HEK293, 0.15 μM Ca2+, current at −90 mV, read-out: EC50 (mean ± SEM, μM) on potentiating KCa2.2a channels; for fold higher potency on KCa2.2a channels compared to CyPPA: ratio of EC50 values vs CyPPA; for KCa2.2a/KCa2.3 subtype selectivity: vs KCa2.1 and KCa3.1
T2 construct: expressed in transfected cells; host or cells: HEK293
Experimental: The impact of adding one substituent group at C4 of the cyclohexane moiety of CyPPA with either electron donating (OH (2a), NH2 (2b), CH2OH (2c), and OCH3 (2d)) or electron-withdrawing groups (F (2e) and NO2 (2f)) was explored. The potency of the newly synthesized compounds compared to the template CyPPA was measured via inside-out patch clamp electrophysiology recordings with KCa2.2a channels heterologously expressed in HEK293 cells (FIG. 1A). […] The responses induced by 10 μM Ca^2+ are considered the maximal currents of the KCa2.2a channels. To evaluate the efficacy (Emax) of compounds on KCa2.2a channels, the current amplitudes at −90 mV in response to the maximal concentration of compounds were normalized to that obtained at 10 μM Ca^2+ (I/Imax (%), FIG. 1C).
The effect of newly synthesized compounds on the KCa2.x/KCa3.1 channels was investigated as previously described (Nam, Y. W.; et al, Acta Physiol (Oxf) 2020, e13552; Nam, Y. W.; et al. Scientific reports 2018, 8 (1), 10749). Briefly, the rat KCa2.2a, human KCa2.1, human KCa2.3 or human KCa3.1 channels cDNA constructs were either generated in-house or through molecular cloning services (Genscript). The channel cDNAs, along with CaM and GFP, at a ratio of 7:4:2 (ORF ratios), were transfected into HEK293 cells by the calcium-phosphate method. KCa currents were recorded 1-2 days after transfection, with an Axon200B amplifier (Molecular Devices) at room temperature. The resistance of the patch electrodes ranged from 3-5 MΩ. The pipette solution contained (in mM): 140 KCl, 10 Hepes (pH 7.4), 1 MgSO4. The bath solution containing (in mM): 140 KCl, 10 Hepes (pH 7.2), 1 EGTA, 0.1 Dibromo-BAPTA, and 1 HEDTA was mixed with Ca^2+ to obtain the desired free Ca^2+ concentrations, calculated using the software by Chris Patton of Stanford University (https://somapp.ucdmc.ucdavis.edu/pharmacology/bers/maxchelator/webmaxc/webmaxcS.htm). The Ca^2+ concentrations were verified using a Ca^2+ calibration buffer kit (Thermo Fisher Scientific). Briefly, a standard curve was generated using the Ca^2+ buffers from the kit and a fluorescence Ca^2+ indicator. Then, the Ca^2+ concentrations of the bath solution were determined through interpolation on the standard curve.
High resistance seals (>1 GΩ) were formed before inside-out patches were obtained. The seal resistance of inside-out patches was >1 GΩ, when the intracellular face was initially exposed to a zero-Ca^2+ bath solution. Currents were recorded by repetitive 1-s-voltage ramps from −100 mV to +100 mV from a holding potential of 0 mV. The currents were filtered at 2 kHz and digitized at a sampling frequency of 10 kHz. At the end of experiment, the integrity of the patch was examined by switching the bath solution back to the zero-Ca^2+ buffer. Data from patches, which maintained the seal resistance (>1 GΩ) after solution changes, were used for further analysis.
as §1
Patch-clamp recordings were analyzed using Clampfit 10.5 (Molecular Devices LLC) and concentration-response curves were analyzed in GraphPad Prism 9.0.2 (GraphPad Software Inc.). To construct the concentration-dependent potentiation of channel activities by compound, the current amplitudes at −90 mV in response to various concentrations of the compound were normalized to that obtained at a maximal concentration of compound. The normalized currents were plotted as a function of the concentrations of the compound. EC50 values and Hill coefficients were determined by fitting the data points to a standard concentration-response curve (Y=100/(1+(X/EC50)^−Hill)). […]

| Compound | response of KCa3.1 channels (human KCa3.1 channel) | Emax (human KCa3.1 channel) | EC50 (rat KCa2.2a) | fold higher potency on KCa2.2a channels compared to CyPPA (rat KCa2.2a) | KCa2.2a/KCa2.3 subtype selectivity (rat KCa2.2a) |
| --- | --- | --- | --- | --- | --- |
| Cc1cc(Nc2ccc(F)c(Cl)c2)nc(-n2nc(C)cc2C)n1 [Compound 2o, N-(3-Chloro-4-fluorophenyl)-2-(3,5-dimethyl-1H-pyrazol-1-yl)-6-methyl-pyrimidin-4-amine] | mostly insensitive | 26.1 ± 7.67% | 0.99 ± 0.079 µM | ~7 fold | retained the KCa2.2a/KCa2.3 subtype selectivity |
| Cc1cc(Nc2cc(Cl)ccc2F)nc(-n2nc(C)cc2C)n1 [Compound 2q, N-(5-Chloro-2-fluorophenyl)-2-(3,5-dimethyl-1H-pyrazol-1-yl)-6-methylpyrimidin-4-amine] | mostly insensitive | -0.79 ± 1.19% | 0.64 ± 0.051 µM | ~10 fold | retained the KCa2.2a/KCa2.3 subtype selectivity |
